Measured values published in PubChem BioAssay AID2060622 (Molecular Pharmacology Branch, DTP, NCI, 2025).

System: 242566-281-R-J2-PDC complex spheroid viability
Assay: Anticancer human tumor 242566-281-R-J2-PDC patient-derived pancreatic carcinoma cell line growth inhibition [CLK]
Details: for IC50: curve of first compound; for viability, T/C: stronger effect = lower value
Procedure, shortened: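 Multi-cell-type spheroids combined patient-derived tumor cells with HUVEC endothelial cells and human mesenchymal stem cells. Paired agents were dosed in half-log steps down from about clinical Cmax, or from 10 microM where Cmax was unknown.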

[1] = second compound 0.0316 µM, first compound 0.0316 µM
[2] = second compound 0.0316 µM, first compound 0.1 µM
[3] = second compound 0.0316 µM, first compound 0.316 µM
[4] = second compound 0.0316 µM, first compound 1 µM
[5] = second compound 0.1 µM, first compound 0.0316 µM
[6] = second compound 0.1 µM, first compound 0.1 µM
[7] = second compound 0.1 µM, first compound 0.316 µM
[8] = second compound 0.1 µM, first compound 1 µM
[9] = second compound 0.316 µM, first compound 0.0316 µM
[10] = second compound 0.316 µM, first compound 0.1 µM
[11] = second compound 0.316 µM, first compound 0.316 µM
[12] = second compound 0.316 µM, first compound 1 µM
[13] = second compound 1 µM, first compound 0.0316 µM
[14] = second compound 1 µM, first compound 0.1 µM
[15] = second compound 1 µM, first compound 0.316 µM
[16] = second compound 1 µM, first compound 1 µM
[17] = second compound 3.16 µM, first compound 0.0316 µM
[18] = second compound 3.16 µM, first compound 0.1 µM
[19] = second compound 3.16 µM, first compound 0.316 µM
[20] = second compound 3.16 µM, first compound 1 µM
[21] = second compound 10 µM, first compound 0.0316 µM
[22] = second compound 10 µM, first compound 0.1 µM
[23] = second compound 10 µM, first compound 0.316 µM
[24] = second compound 10 µM, first compound 1 µM
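Also: spheroids exposed to compounds for 7 days before readout.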
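For viability, T/C in this document: 100% = DMSO vehicle control wells.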

CC(Nc1ccc2c(c1)OCCn1cc(N3C(=O)OCC3C(F)F)nc1-2)C(N)=O (centres undefined) + CNC(=O)c1ccc(Nc2nc(OC3CCCC3)c3c(-c4ccc5nc(C)oc5c4)c[nH]c3n2)c(OC)c1
IC50 (second compound 0.0316 µM): 2140 nM | IC50 (second compound 0.1 µM): 1770 nM | IC50 (second compound 0.316 µM): 690 nM | IC50 (second compound 1 µM): 92.4 nM | IC50 (second compound 3.16 µM): < 31.6 nM | IC50 (second compound 10 µM): < 31.6 nM | viability, T/C [1]: 84.6% | viability, T/C [2]: 91.4% | viability, T/C [3]: 75.9% | viability, T/C [4]: 62.4% | viability, T/C (second compound 0.0316 µM, first compound 3.16 µM): 44.4% | viability, T/C (second compound 0.0316 µM, first compound 10 µM): 30.6% | viability, T/C [5]: 100% | viability, T/C [6]: 96.5% | viability, T/C [7]: 70.4% | viability, T/C [8]: 62.2% | viability, T/C (second compound 0.1 µM, first compound 3.16 µM): 40.3% | viability, T/C (second compound 0.1 µM, first compound 10 µM): 28.2% | viability, T/C [9]: 82.3% | viability, T/C [10]: 77.6% | viability, T/C [11]: 59.6% | viability, T/C [12]: 44% | viability, T/C (second compound 0.316 µM, first compound 3.16 µM): 32.8% | viability, T/C (second compound 0.316 µM, first compound 10 µM): 21.6% | viability, T/C [13]: 63.9% | viability, T/C [14]: 47.2% | viability, T/C [15]: 38.5% | viability, T/C [16]: 26.8% | viability, T/C (second compound 1 µM, first compound 3.16 µM): 19.8% | viability, T/C (second compound 1 µM, first compound 10 µM): 14.2% | viability, T/C [17]: 44.4% | viability, T/C [18]: 32.9% | viability, T/C [19]: 27.5% | viability, T/C [20]: 22.8% | viability, T/C (second compound 3.16 µM, first compound 3.16 µM): 15.7% | viability, T/C (second compound 3.16 µM, first compound 10 µM): 11.6% | viability, T/C [21]: 41% | viability, T/C [22]: 33.6% | viability, T/C [23]: 28.2% | viability, T/C [24]: 20.3% | viability, T/C (second compound 10 µM, first compound 3.16 µM): 15.1% | viability, T/C (second compound 10 µM, first compound 10 µM): 10.6%

CCN1CCN(Cc2ccc(Nc3ncc(F)c(-c4cc(F)c5nc(C)n(C(C)C)c5c4)n3)nc2)CC1 + CNC(=O)c1ccc(Nc2nc(OC3CCCC3)c3c(-c4ccc5nc(C)oc5c4)c[nH]c3n2)c(OC)c1
IC50 (second compound 0.0316 µM): > 1000 nM | IC50 (second compound 0.1 µM): > 1000 nM | IC50 (second compound 0.316 µM): > 1000 nM | IC50 (second compound 1 µM): > 1000 nM | IC50 (second compound 3.16 µM): > 1000 nM | IC50 (second compound 10 µM): > 1000 nM | viability, T/C (second compound 0.0316 µM, first compound 0.00316 µM): 103% | viability, T/C (second compound 0.0316 µM, first compound 0.01 µM): 106% | viability, T/C [1]: 92% | viability, T/C [2]: 126% | viability, T/C [3]: 136% | viability, T/C [4]: 154% | viability, T/C (second compound 0.1 µM, first compound 0.00316 µM): 76.5% | viability, T/C (second compound 0.1 µM, first compound 0.01 µM): 109% | viability, T/C [5]: 95.7% | viability, T/C [6]: 104% | viability, T/C [7]: 122% | viability, T/C [8]: 153% | viability, T/C (second compound 0.316 µM, first compound 0.00316 µM): 91.6% | viability, T/C (second compound 0.316 µM, first compound 0.01 µM): 98% | viability, T/C [9]: 79.2% | viability, T/C [10]: 117% | viability, T/C [11]: 125% | viability, T/C [12]: 156% | viability, T/C (second compound 1 µM, first compound 0.00316 µM): 74.5% | viability, T/C (second compound 1 µM, first compound 0.01 µM): 86.8% | viability, T/C [13]: 84.8% | viability, T/C [14]: 96.2% | viability, T/C [15]: 134% | viability, T/C [16]: 142% | viability, T/C (second compound 3.16 µM, first compound 0.00316 µM): 63.2% | viability, T/C (second compound 3.16 µM, first compound 0.01 µM): 61% | viability, T/C [17]: 72.1% | viability, T/C [18]: 85.7% | viability, T/C [19]: 118% | viability, T/C [20]: 123% | viability, T/C (second compound 10 µM, first compound 0.00316 µM): 55.1% | viability, T/C (second compound 10 µM, first compound 0.01 µM): 59.8% | viability, T/C [21]: 75.4% | viability, T/C [22]: 80.5% | viability, T/C [23]: 101% | viability, T/C [24]: 124%
